Measurements taken from patent US20240041042A1, “1-(PYRIDYL)-5-AZINYLPYRAZOLE DERIVATIVES, AND THEIR USE FOR CONTROL OF UNDESIRED PLANT GROWTH” (Bayer Aktiengesellschaft, priority 2020, published 2024).
Like-named read-outs stand apart in the source and are kept apart here.

Assays:
Type in all cases: in vivo
[1] = tested on: Verconica persica (VERPE); assay: Post-emergence herbicidal action against VERPE
Method in brief: (§1)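 Doses of 320 g/ha or lower, suffixes a, b and c marking different dosages, were applied post-emergence at the one-leaf stage in 600 l/ha water with 0.5% additive. Damage was assessed visually after about 3 weeks in the greenhouse.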

[2] = tested on: Alopecurus myosuroides (ALOMY); assay: Post-emergence herbicidal action against ALOMY; conditions: visual rating about 3 weeks after treatment vs untreated controls (100% = plants have died, 0% = like control plants)
Method in brief: as §1

[3] = tested on: Alopecurus myosuroides (ALOMY); assay: Pre-emergence herbicidal action against ALOMY; conditions: scored visually after about 3 weeks, 100% = plants have died
Method in brief: (§2)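 Pre-emergence soil-surface spray, WP/EC formulation, 0.5% additive, 600 l/ha water, rates of 320 g/ha or lower. Greenhouse, ~3 wk. Visual score, % of untreated control (100% = plants dead, 0% = like control).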

[4] = tested on: Amaranthus retroflexus (AMARE); assay: Pre-emergence herbicidal action against AMARE; conditions: visual scoring after about 3 weeks vs untreated controls
Method in brief: as §2

[5] = tested on: Verconica persica (VERPE); assay: Pre-emergence herbicidal action against VERPE; conditions: dosage 320 g/ha
Method in brief: as §2

[6] = tested on: Echinochloa crus-galli (ECHCG); assay: Pre-emergence herbicidal action against ECHCG; conditions: dosage 320 g/ha
Method in brief: as §2

[7] = tested on: Lolium rigidum (LOLRI); assay: Post-emergence herbicidal action against LOLRI
Method in brief: as §1

[8] = tested on: Lolium rigidum (LOLRI); assay: Pre-emergence herbicidal action against LOLRI
Method in brief: as §2

[9] = tested on: Matricaria inodora (MATIN); assay: Pre-emergence herbicidal action against MATIN; conditions: dosage 320 g/ha
Method in brief: as §2

[10] = tested on: Brassica napus (BRSNW); conditions: 80 g/ha, crop plant compatibility, in comparison to untreated controls
Method in brief: (§3)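 Crop injury rated visually in percent against untreated plants roughly 3 weeks after treatment (0% no effect, 100% plants dead). Compounds, as WP or EC with 0.5% additive in 600 l/ha water, were applied to the covering soil right after sowing; greenhouse growth. Suffixes a, b, c denote different dosages.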

[11] = tested on: Zea mays (ZEAMX); conditions: pre-emergence, 80 g/ha, crop plant compatibility, in comparison to untreated controls
Method in brief: as §3

[12] = tested on: Viola tricolor (VIOTR); assay: Pre-emergence herbicidal action against VIOTR
Method in brief: as §2

[13] = tested on: Avena fatua (AVEFA); assay: Pre-emergence herbicidal action against AVEFA; conditions: visual scoring after about 3 weeks vs untreated controls
Method in brief: as §2

[14] = tested on: Setaria viridis (SETVI); assay: Pre-emergence herbicidal action against SETVI; conditions: dosage 320 g/ha
Method in brief: as §2

[15] = tested on: Zea mays (ZEAMX); conditions: for Post-emergence action against ZEAMX in %: crop plant compatibility, 80 g/ha, effect vs untreated controls
Method in brief: (§4)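 Percent effect on the crop was judged by eye against untreated controls, where 0% means like control and 100% means dead plants. Plants had been sprayed post-emergence at the one-leaf stage and then kept under optimum greenhouse conditions for about 3 weeks.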

[16] = tested on: Oryza sativa (ORYSA); conditions: crop plant compatibility
Method in brief: as §4

[17] = tested on: Avena fatua (AVEFA); assay: Post-emergence herbicidal action against AVEFA; conditions: visual rating about 3 weeks after treatment
Method in brief: as §1

[18] = tested on: Polygonum convolvulus (POLCO); assay: Pre-emergence herbicidal action against POLCO
Method in brief: as §2

[19] = tested on: Viola tricolor (VIOTR); assay: Post-emergence herbicidal action against VIOTR
Method in brief: as §1

[20] = tested on: Digitaria sanguinalis (DIGSA); assay: Pre-emergence herbicidal action against DIGSA
Method in brief: as §2

[21] = tested on: Pharbitis purpurea (PHBPU); assay: Post-emergence herbicidal action against PHBPU
Method in brief: as §1

[22] = tested on: Polygonum convolvulus (POLCO); assay: Post-emergence herbicidal action against POLCO; conditions: dosage 320 g/ha
Method in brief: as §1

[23] = tested on: Amaranthus retroflexus (AMARE); assay: Post-emergence herbicidal action against AMARE; conditions: 320 g/ha, visual rating about 3 weeks after treatment
Method in brief: as §1

[24] = tested on: Oryza sativa (ORYSA); conditions: pre-emergence, 80 g/ha, crop plant compatibility, in comparison to untreated controls
Method in brief: as §3

[25] = tested on: Setaria viridis (SETVI); assay: Post-emergence herbicidal action against SETVI; conditions: dosage 320 g/ha
Method in brief: as §1

[26] = tested on: Echinochloa crus-galli (ECHCG); assay: Post-emergence herbicidal action against ECHCG
Method in brief: as §1

[27] = tested on: Pharbitis purpurea (PHBPU); assay: Pre-emergence herbicidal action against PHBPU; conditions: dosage 320 g/ha
Method in brief: as §2

[28] = tested on: Matricaria inodora (MATIN); assay: Post-emergence herbicidal action against MATIN; conditions: dosage 320 g/ha
Method in brief: as §1

[29] = tested on: Digitaria sanguinalis (DIGSA); assay: Post-emergence herbicidal action against DIGSA; conditions: 320 g/ha, visual rating about 3 weeks after treatment
Method in brief: as §1

[30] = 80 g/ha, effect in comparison to untreated controls

SMILES | Post-emergence action against ALOMY in % ([2]; 80 g/ha) | Pre-emergence action against ALOMY ([3]; 320 g/ha) | Pre-emergence action against AMARE in % ([4]; 320 g/ha) | Pre-emergence action against ECHCG in % [6] | Post-emergence action against LOLRI in % ([7]; dosage 80 g/ha) | Pre-emergence action against LOLRI in % ([8]; dosage 320 g/ha) | Pre-emergence action against MATIN in % [9] | Pre-emergence action against BRSNW in % [10] | Pre-emergence action against ZEAMX in % [11] | Pre-emergence action against VIOTR in % ([12]; 320 g/ha, Viola tricolor) | Pre-emergence action against AVEFA in % ([13]; 320 g/ha) | Pre-emergence action against SETVI in % [14] | Post-emergence action against ZEAMX in % [15] | Post-emergence action against ORYSA in % [16, 30] | Post-emergence action against VIOTR in % ([19]; 320 g/ha) | Pre-emergence action against DIGSA in % ([20]; dosage 320 g/ha) | Post-emergence action against ALOMY in % ([2]; 320 g/ha) | Post-emergence action against PHBPU in % ([21]; dosage 320 g/ha) | Post-emergence action against POLCO in % [22] | Post-emergence action against AVEFA in % ([17]; 320 g/ha) | other results
C[C@@H](Oc1nn(-c2ncccc2Cl)c(-c2ccc(F)nc2)c1Br)C(=O)O [Example I-25] | 90% | 90% | 100% | 90% | 80% | 100% | 90% | 10% | 10% | 100% | 100% | 100% | 20% | 10% | – | – | – | – | – | – | Post-emergence action against VERPE in % ([1]; dosage 80 g/ha): 80%; Pre-emergence action against ALOMY ([3]; 80 g/ha): 80%; Pre-emergence action against AMARE in % ([4]; 80 g/ha): 90%; Pre-emergence action against VERPE in % [5]: 90%; Pre-emergence action against VIOTR in % ([12]; dosage 80 g/ha): 100%; Pre-emergence action against AVEFA in % ([13]; 80 g/ha): 90%; Post-emergence action against ZEAMX in % (crop plant compatibility) ([15]; 20 g/ha, ZEAMX, effect in comparison to untreated controls): 10%; Post-emergence action against ORYSA in % ([16]; 20 g/ha, effect vs untreated controls): 0%; Post-emergence action against AVEFA in % ([17]; 80 g/ha): 90%; Pre-emergence action against POLCO in % ([18]; dosage 80 g/ha): 80%; Pre-emergence action against POLCO in % ([18]; dosage 320 g/ha): 90%
COC(=O)CCOC(=O)[C@@H](C)Oc1nn(-c2ccccn2)c(-c2ccc(Cl)nc2)c1Cl [Example I-245] | – | 90% | 80% | – | – | 90% | – | 0% | 0% | 80% | – | – | – | 0% | 80% | 90% | 80% | 90% | 80% | 80% | Post-emergence action against PHBPU in % ([21]; dosage 80 g/ha): 80%; Post-emergence action against AMARE in % [23]: 80%
COC(=O)CCOC(=O)COc1nn(-c2ncccc2F)c(-c2ccc(F)nc2)c1Cl [Example I-272] | – | 90% | 90% | – | – | 80% | – | 0% | 0% | 90% | 100% | 90% | 10% | 10% | – | – | 90% | – | 80% | 80% | Post-emergence action against VERPE in % ([1]; 320 g/ha, VERPE): 80%; Pre-emergence action against ORYSA in % [24]: 10%; Post-emergence action against SETVI in % [25]: 80%; Post-emergence action against ECHCG in % ([26]; dosage 320 g/ha): 80%
COC(=O)COc1nn(-c2nc(F)ccc2F)c(-c2ccc(F)nc2)c1C1CC1 [Example I-300] | 80% | – | 90% | 90% | 90% | 90% | 80% | 20% | 10% | 90% | – | 90% | – | – | 90% | 100% | 90% | 80% | – | – | Post-emergence action against VERPE in % ([1]; 320 g/ha, VERPE): 80%; Post-emergence action against VIOTR in % ([19]; 80 g/ha): 80%; Pre-emergence action against DIGSA in % ([20]; 80 g/ha, visual scoring after about 3 weeks vs untreated controls): 90%; Post-emergence action against LOLRI in % ([7]; dosage 320 g/ha): 90%; Pre-emergence action against LOLRI in % ([8]; dosage 80 g/ha): 80%; Pre-emergence action against PHBPU in % [27]: 80%; Post-emergence action against SETVI in % [25]: 80%; Post-emergence action against ECHCG in % ([26]; dosage 80 g/ha): 80%; Post-emergence action against ECHCG in % ([26]; dosage 320 g/ha): 90%; Post-emergence action against MATIN in % [28]: 80%; Post-emergence action against DIGSA in % [29]: 80%; Post-emergence action against AMARE in % [23]: 80%
